According to patent EP1978972B1, “USE OF ALKYLGLUCOSIDE ESTERS AS BETA-DEFENSIN INDUCERS” (Pierre Fabre Dermo-Cosmétique, priority 2006, dated 2007):

Tests used:
S. aureus [1] = test: Direct microbicidal activity and direct effect on adhesion of S. aureus; set-up: species or system Staphylococcus aureus; details: at the concentrations used
hBD-2 = test: Immunohistochemistry of hBD-2 peptide in skin explants; assay type: cell-based, human; details: skin explant, qualitative
Protocol: (§1) Les échantillons inclus dans la résine Tissue Tek® sont coupés à froid (température de la chambre à -25°C et la température du porte-objet à - 28°C) à l'aide d'un cryostat (Leica CM 3050s, Nussloch). Les cryocoupes d'une épaisseur de 5 µm sont récupérées sur des lames porte-objet prétraitées, puis mises à sécher environ 2 h à température ambiante et stockées à -20°C pour une utilisation ultérieure. Avant de réaliser l'immuno-marquage, les coupes sont fixées à l'acétone à -20°C pendant 10 min, séchées et conservées à -20°C. Lors d'une première étape, les coupes sont hydratées puis incubées avec les anticorps primaires dirigés contre les peptides d'intérêt dilués dans du PBS. Les anticorps primaires utilisés sont les suivants : • Goat Anti-human BD-2 (500-P161G, Peprotech Inc) dilué au 1/50^e • Rabbit Anti-human defensin-3 (AB3478, Chemicon international) dilué au 1/1000^e • Rabbit Anti-human LL37 (G-075-06, Phoenix Pharmaceuticals Inc) dilué au 1/50^e
Pour révéler le complexe Antigène-Anticorps, le kit DAKO LSAB® (DAKO Corporation) est utilisé selon les recommandations du fournisseur. La révélation est réalisée à l'aide d'un substrat de la péroxydase : la 3,3'diaminobenzidine (DAB) (DAKO Corporation). […]

hBD-3 = test: Immunohistochemistry of hBD-3 peptide in gingival explant, systemic treatment; assay type: cell-based, human; details: 30 µg/ml, 5 h, qualitative
Protocol: Les explants gingivaux humains de taille variable et petite sont rincés dix fois dans du PBS sans antibiotiques puis mis en culture sur une grille afin d'éviter leur immersion totale, posés côté derme.
as §1
Pour révéler le complexe Antigène-Anticorps, le kit DAKO LSAB® (DAKO Corporation) est utilisé selon les recommandations du fournisseur. […]

S. aureus [2] = test: Adhesion of S. aureus on skin explant (modified Franz cell), count of adherent bacteria; assay type: cell-based, Staphylococcus aureus
Text: Pour révéler le complexe Antigène-Anticorps, le kit DAKO LSAB® (DAKO Corporation) est utilisé selon les recommandations du fournisseur. La révélation est réalisée à l'aide d'un substrat de la péroxydase : la 3,3'diaminobenzidine (DAB) (DAKO Corporation). La réaction enzymatique est révélée par une coloration brune. • ➢L'adhésion des micro-organismes est réalisée dans une cellule à double compartimentation, de type cellule de Franz modifiée. • ➢Une suspension de S.aureus (CIP 53.154) équivalente à 0,5.10^7 micro-organismes est introduite au sein du compartiment supérieur de la cellule. Le dispositif est incubé de 2 h à 37°C sous une atmosphère à 5 % de CO2. A la fin de cette période d'incubation, le surnageant est retiré afin d'éliminer les bactéries non adhérentes. Les échantillons de peau sont ensuite rincés deux fois avec 1 ml de mélange DMEM/HAMF12. Un dénombrement bactérien à l'issue de cette étape donne la proportion de bactéries ayant adhéré à l'explant (T+2 h). Un témoin est réalisé dans le but de déterminer l'adhésion non spécifique des bactéries. • ➢La stimulation de l'expression des β-défensines cutanées précède l'étape d'adhésion. Son objectif est d'étudier l'impact de l'induction des peptides antimicrobiens par des actifs potentiels de type « alkyle mono- ou di-ester d'α,β-butylglucoside » sur l'adhésion de souches bactériennes. Le traitement est effectué en topique ou en systémique. Le temps de stimulation des explants cutanés est de 24 h à 37°C en présence de 5 % de CO2.
Pour analyse, les explants sont retirés de leur cellule, des punchs de diamètres différents (3 mm, 4 mm et 6 mm) sont effectués pour un test MTT de survie, les marquages immuno-histologiques et les analyses des transcrits par RT-PCR. Le reste de peau est utilisé pour une estimation de la flore bactérienne adhérente.
Le dénombrement de la flore bactérienne adhérente exogène par unité de surface de peau a été effectué selon deux méthodes : • par dénombrement bactérien sur milieu solide • par comptage de la radioactivité émise (la souche contaminante étant marquée au H^3) est effectuée. […]
Après une application topique de 5 h et plusieurs rinçages de la surface épidermique d'un explant cutané, l'effet du traitement par l'α,β-LBG brut sur l'adhésion de S.aureus sur ce même explant a été quantifié par le dénombrement des germes adhérents à l'issue d'une mise en contact de 2 h. […]
Après application topique et plusieurs rinçages de la surface épidermique des explants cutanés, l'effet du traitement par les isoformes de l'ester de laurate de butylglucoside pur à 90 %, séparées, α seul, β seul, ou en mélange α,β-LBG (56 % α/44 % β) sur l'adhésion de S. aureus sur l'épiderme a été comparé après quantification des germes adhérents par dénombrement.

In the case of laurate de butylglucoside [αβ-LBG brut], the activité microbicide directe (S. aureus [1]) is reported as “ni activité microbicide directe”, the “direct effect on adhésion de S. aureus” value (S. aureus [1]) is reported as “ni effet sur l'adhésion de S. aureus” and the “production du peptide hBD-2 dans les couches supérieures de l'épiderme” value (hBD-2; systemic, 24 h) is reported as “stimulation de la production”. For the same substance, the “production du peptide hBD-2 dans les couches supérieures de l'épiderme” value (hBD-2; topical) was “stimulation de la production”, the “production du peptide hBD-3 dans les couches supérieures de l'épithélium gingival” value (hBD-3) was “induction de la production du peptide hBD-3” and the “diminution de l'adhésion des germes sur l'explant” value (S. aureus [2]; systemic 30 µg/ml, separate compartments, vs unstimulated control) was 11%. For the same substance, the “baisse de l'adhésion de S. aureus” value (S. aureus [2]; topical 30 µg/ml for 5 h, then 2 h contact, vs untreated control) was 20%.
